Results on twelve compounds are retold here after patent publication US12552825B2 (Zikani Therapeutics, Inc., priority 2019, dated 2026).

Holding throughout (format): cell-based
Experiment [1] concerns E. coli MP-4. Nature of the experiment: MIC determination by CLSI broth dilution, E. coli MP-4. Conditions: strain MP-4; for MIC E. coli MP-4: CLSI broth dilution; for MIC: Escherichia coli, MP4, CLSI broth dilution. A general note: In broth dilution the organism is exposed to a series of concentrations in liquid medium.
In experiment [2] the test system is P. aeruginosa MP-3. Nature of the experiment: MIC determination by CLSI broth dilution, P. aeruginosa MP-3. Conditions: for MIC P aeruginosa MP-3: strain MP-3; for MIC: Pseudomonas aeruginosa, MP3, strain MP-3.
Experiment [3] deals with K. pneumoniae MP-648. The experiment in a line: MIC determination by CLSI broth dilution, K. pneumoniae MP-648. The settings on record: strain MP-648; for MIC K. pneumoniae MP-648: CLSI broth dilution; for MIC: Klebsiella pneumoniae, MP648, CLSI broth dilution.
In experiment [4] the test system is A. baumannii MP-15. Nature of the experiment: MIC determination by CLSI broth dilution, A. baumannii MP-15. The settings on record: for MIC A. baumanii MP-15: strain MP-15; for MIC: Acinetobacter baumannii, MP15, strain MP-15, read-out: MIC A. baumanii MP-15.
The subject of experiment [5] is K. pneumoniae MP-546. The experiment in a line: MIC determination by CLSI broth dilution, K. pneumoniae MP-546. Conditions: CLSI broth dilution; strain MP-546.
Experiment [6] concerns S. aureus MP-12. Nature of the experiment: microbe, parasite or virus in culture. The settings on record: Staphylococcus aureus, MP12, read-out: MIC S. aureus MP-12.

Converted amounts (≈) assume the structure as drawn.

As for `CO[C@]1(C)C[C@@H](C)CN(C)[C@H](C[C@H]2C[C@H](N(C)CC(C)C)C2)COC(=O)C(C)(C)C(=O)[C@H](C)[C@H]1O[C@@H]1O[C@H](C)C[C@H](N(C)C)[C@H]1O` [Compound 134, (3R,6R,8R,9R,10R)-9-(((2S,3R,4S,6R)-4-(dimethylamino)-3-hydroxy-6-methyltetrahydro-2H-pyran-2-yl)oxy)-3-(((1r,3S)-3-(isobutyl(methyl)amino)cyclobutyl)methyl)-8-methoxy-4,6,8,10,12,12-hexamethyl-1-oxa-4-azacyclotridecane-11,13-dione], the “MIC E. coli MP-4” value in experiment [1] is “+++ (values less than or equal to 4 mg/L)”. In addition, the “MIC P aeruginosa MP-3” value in experiment [2] was “+ (values greater than 32 mg/L)”. Besides, in experiment [3], the “MIC K. pneumoniae MP-648” value is “+++ (values less than or equal to 4 mg/L)”. Besides, the “MIC A. baumanii MP-15” value in experiment [4] is recorded as “+ (values greater than 32 mg/L)”. Besides, the “MIC K. pneumoniae MP-546” value in experiment [5] is listed as “+++ (values less than or equal to 4 mg/L)”.
With `CO[C@]1(C)C[C@@H](C)CN(C)[C@H]([C@@H](O)C2CCN(CC3CC3)CC2)COC(=O)C(C)(C)C(=O)[C@H](C)[C@H]1O[C@@H]1O[C@H](C)C[C@H](N(C)C)[C@H]1O` [Compound 28], the “MIC E. coli MP-4” value in experiment [1] is listed as “+ (values greater than 32 mg/L)”. The “MIC P aeruginosa MP-3” value in experiment [2] is “+ (values greater than 32 mg/L)”. The “MIC K. pneumoniae MP-648” value in experiment [3] was “+ (values greater than 32 mg/L)”. Further, in experiment [4], the “MIC A. baumanii MP-15” value is “+ (values greater than 32 mg/L)”. Also, the “MIC K. pneumoniae MP-546” value in experiment [5] is listed as “+ (values greater than 32 mg/L)”.
Turning to `CCN1CCN(C[C@H]2COC(=O)C(C)(C)C(=O)[C@H](C)[C@@H](O[C@@H]3O[C@H](C)C[C@H](N(C)C)[C@H]3O)[C@](C)(OC)C[C@@H](C)CN2C)CC1` [Compound 155, (3S,6R,8R,9R,10R)-9-(((2S,3R,4S,6R)-4-(dimethylamino)-3-hydroxy-6-methyltetrahydro-2H-pyran-2-yl)oxy)-3-((4-ethylpiperazin-1-yl)methyl)-8-methoxy-4,6,8,10,12,12-hexamethyl-1-oxa-4-azacyclotridecane-11,13-dione], the MIC is 4 to 32 µg/mL (≈ 6.38 to 51 µM) in experiment [6]; less than 4 µg/mL in experiment [1]; greater than 32 µg/mL in experiment [2]; 4 to 32 µg/mL (≈ 6.38 to 51 µM) in experiment [3]; greater than 32 µg/mL in experiment [4].
Regarding `CCN1C[C@H](C)C[C@@](C)(OC)[C@H](O[C@@H]2O[C@H](C)C[C@H](N(C)C)[C@H]2O)[C@@H](C)C(=O)C(C)(C)C(=O)OC[C@H]1[C@H](O)CCN(C1CC1)C1Cc2ccccc2C1` [Compound 226], the MIC is 4 to 32 µg/mL (≈ 5.38 to 43 µM) in experiment [6]; less than 4 µg/mL in experiment [1]; greater than 32 µg/mL in experiment [2]; 4 to 32 µg/mL (≈ 5.38 to 43 µM) in experiment [3]; greater than 32 µg/mL in experiment [4].
Turning to `CCN1C[C@H](C)C[C@@](C)(OC)[C@H](O[C@@H]2O[C@H](C)C[C@H](N(C)C)[C@H]2O)[C@@H](C)C(=O)C(C)(C)C(=O)OC[C@H]1[C@H](O)CCN(C)CC(F)(F)F` [Compound 193, (3S,6R,8R,9R,10R)-9-(((2S,3R,4S,6R)-4-(dimethylamino)-3-hydroxy-6-methyltetrahydro-2H-pyran-2-yl)oxy)-4-ethyl-3-((R)-1-hydroxy-3-(methyl(2,2,2-trifluoroethyl)amino)propyl)-8-methoxy-6,8,10,12,12-pentamethyl-1-oxa-4-azacyclotridecane-11,13-dione], the MIC was greater than 32 µg/mL in experiment [6]; 4 to 32 µg/mL (≈ 5.85 to 46.8 µM) in experiment [1]; greater than 32 µg/mL in experiment [2]; greater than 32 µg/mL in experiment [3]; greater than 32 µg/mL in experiment [4].
For `CCN1C[C@H](C)C[C@@](C)(OC)[C@H](O[C@@H]2O[C@H](C)C[C@H](N(C)C)[C@H]2O)[C@@H](C)C(=O)C(C)(C)C(=O)OC[C@H]1[C@H](O)CCO` [Compound 200, (3S,6R,8R,9R,10R)-3-((R)-1,3-dihydroxypropyl)-9-(((2S,3R,4S,6R)-4-(dimethylamino)-3-hydroxy-6-methyltetrahydro-2H-pyran-2-yl)oxy)-4-ethyl-8-methoxy-6,8,10,12,12-pentamethyl-1-oxa-4-azacyclotridecane-11,13-dione], the MIC in experiment [6] was greater than 32 µg/mL; in experiment [1] it was 4 to 32 µg/mL (≈ 6.79 to 54.3 µM); in experiment [2], greater than 32 µg/mL; in experiment [3], greater than 32 µg/mL; in experiment [4] it was greater than 32 µg/mL.
Regarding `CO[C@]1(C)C[C@@H](C)CN(C)[C@H](/C=C/CN2Cc3cccnc3C2)COC(=O)C(C)(C)C(=O)[C@H](C)[C@H]1O[C@@H]1O[C@H](C)C[C@H](N(C)C)[C@H]1O` [Compound 152], the MIC in experiment [6] is 4 to 32 µg/mL (≈ 6.07 to 48.6 µM); in experiment [1], less than 4 µg/mL; in experiment [2], greater than 32 µg/mL; in experiment [3], 4 to 32 µg/mL (≈ 6.07 to 48.6 µM); in experiment [4], greater than 32 µg/mL.
For the compound `CO[C@]1(C)C[C@@H](C)CN(C)[C@H]([C@](C)(O)CCN2CCCC2)COC(=O)C(C)(C)C(=O)[C@H](C)[C@H]1O[C@@H]1O[C@H](C)C[C@H](N(C)C)[C@H]1O` [Compound 227], the MIC was 4 to 32 µg/mL (≈ 6.23 to 49.9 µM) in experiment [6]; 4 to 32 µg/mL (≈ 6.23 to 49.9 µM) in experiment [1]; greater than 32 µg/mL in experiment [2]; greater than 32 µg/mL in experiment [3]; greater than 32 µg/mL in experiment [4].
Take `CCN1C[C@H](C)C[C@@](C)(OC)[C@H](O[C@@H]2O[C@H](C)C[C@H](N(C)C)[C@H]2O)[C@@H](C)C(=O)C(C)(C)C(=O)OC[C@@H]1CCCN1CCN(C)CC1` [Compound 180]: the MIC is greater than 32 µg/mL in experiment [6]; less than 4 µg/mL in experiment [1]; greater than 32 µg/mL in experiment [2]; greater than 32 µg/mL in experiment [3]; greater than 32 µg/mL in experiment [4].
For `CCN1C[C@H](C)C[C@@](C)(OC)[C@H](O[C@@H]2O[C@H](C)C[C@H](N(C)C)[C@H]2O)[C@@H](C)C(=O)C(C)(C)C(=O)OC[C@H]1CC1CCN(CCO)CC1` [Compound 169, (3R,6R,8R,9R,10R)-9-(((2S,3R,4S,6R)-4-(Dimethylamino)-3-hydroxy-6-methyltetrahydro-2H-pyran-2-yl)oxy)-4-ethyl-3-((1-(2-hydroxyethyl)piperidin-4-yl)methyl)-8-methoxy-6,8,10,12,12-pentamethyl-1-oxa-4-azacyclotridecane-11,13-dione], the MIC is 4 to 32 µg/mL (≈ 6.1 to 48.8 µM) in experiment [6]; less than 4 µg/mL in experiment [1]; greater than 32 µg/mL in experiment [2]; 4 to 32 µg/mL (≈ 6.1 to 48.8 µM) in experiment [3]; greater than 32 µg/mL in experiment [4].
For the compound `CCN1C[C@H](C)C[C@@](C)(OC)[C@H](O[C@@H]2O[C@H](C)C[C@H](N(C)C)[C@H]2O)[C@@H](C)C(=O)C(C)(C)C(=O)OC[C@H]1C=C1CCN(Cc2ccccc2)CC1` [Compound 192], the MIC is less than 4 µg/mL in experiment [6]; less than 4 µg/mL in experiment [1]; greater than 32 µg/mL in experiment [2]; 4 to 32 µg/mL (≈ 5.71 to 45.7 µM) in experiment [3]; 4 to 32 µg/mL (≈ 5.71 to 45.7 µM) in experiment [4].
Turning to `CCN1C[C@H](C)C[C@@](C)(OC)[C@H](O[C@@H]2O[C@H](C)C[C@H](N(C)C)[C@H]2O)[C@@H](C)C(=O)C(C)(C)C(=O)OC[C@H]1CC1CCN(CCOC)CC1` [Compound 170], the MIC is 4 to 32 µg/mL (≈ 5.97 to 47.8 µM) in experiment [6]; less than 4 µg/mL in experiment [1]; greater than 32 µg/mL in experiment [2]; less than 4 µg/mL in experiment [3]; greater than 32 µg/mL in experiment [4].
